# Results as given in paper PMC9570995, “Design, Synthesis, and Biological Evaluation of Novel Dihydropyridine and Pyridine Analogs as Potent Human Tissue Nonspecific Alkaline Phosphatase Inhibitors with Anticancer Activity: ROS and DNA Damage-Induced Apoptosis” (Molecules, 2022).
# Experiments:
# [1] = tested on: Cervical Cancer (HeLa) Cells; test: MTT cell viability assay, HeLa; type: cell-based; settings: Homo sapiens, HeLa
# Description: An MTT assay was used to determine the viability of the cells under examination in the desired medium. The mitochondrial dehydrogenase enzyme of the viable cells has a key role in the conversion of the yellow water-soluble substrate 3-(4,5-dimethylthiazol-2-y1)-2,5 diphenyl tetrazolium bromide (MTT) into a dark blue formazan product that is insoluble in water. The anticancer activity of the novel synthetic derivatives (4a–4k) was investigated through an MTT assay, with small modifications following the already published protocols against cancer cell lines (HeLa and MCF-7), using cisplatin as a reference drug. The cytotoxic effect of the tested compounds at 100 µM concentration was determined and represented as the percent growth inhibition compared with the untreated control cells. The first series comprised dihydropyridines analogous from 4a–4f with various substitution patterns on the phenyl ring. […] It is presumed that the 1-naphthyl containing compound 4c was locked in a configuration that is not favorable for an interaction with amino acid residues.
# The anti-proliferative activity of the synthesized compounds was determined in MCF-7 and HeLa cells by an MTT cell viability assay, as described earlier. Briefly, we seeded 1 × 10^4 cells/well in a sterile 96-well culture microtiter plate and incubated them in a 5% CO2 incubator at 37 °C for 24 h. […] After 24 h, the cells were treated with 0.2 mg/mL of MTT reagent for 4 h. We added 10% acidified SDS (sodium dodecyl sulfate) solubilizing solution in propanol (1:1) to solubilize the formazan crystals. After 30 min at 37 °C, the plate was placed on a gyratory shaker to completely dissolve the formazan crystals. The plate was placed on a microplate reader to measure the optical density at 570 nm. The IC50 values were calculated from three independent experiments as previously reported.
# MCF-7 cells = test: Cell cycle analysis by flow cytometry (PI); type: cell-based; settings: 24 h, IC50 and 2 × IC50
# Description: The progression of the cell cycle is started by a cascade of intracellular signaling pathways to drive progression from the G0 phase to the G1 phase. The mammalian cell cycle involves an overexpression of D-type cyclins during the progression from the G0/G1 to the S-phase and eventually contributes to the development of cancer. Progression is controlled by D-type cyclins after binding with cyclin-dependent kinases (CDKs) and negatively controlled by binding to CDK inhibitors. CDK4/6 is involved in the G1/S transition of the cell cycle and has an important role in breast cancer. Retinoblastoma tumor suppressor protein (pRb) is deactivated through a CDK4/6-mediated phosphorylation reaction. In fact, cyclin D1/CDK4/6 is a mandatory controller of pRb phosphorylation. This phosphorylation deactivates the pRb that leads to cell proliferation.
# PI was used as a fluorescent probe by flow cytometry through small modifications in a published method. The difference in DNA content between the G0/G1, S (synthesis), and G2/M phases can be compared with a control sample. The assay was conducted by seeding 3 × 10^5 cells/well and incubating them for 24 h in a CO2 incubator at 37 °C. […] After harvesting the cells as directed, these cells were centrifuged at 3000 rpm for 5 min and washed with sterile PBS. […] The obtained results were analyzed by using the BD Accuri^TM C6 and GraphPad Prism 5.01 software.
smiles,measurement,setting,value
"N#CC1=C(N)N(Cc2ccccc2)C(N)=C(C#N)C1c1ccc2ccccc2c1 [Compound 4d, 2,6-Diamino-1-benzyl-4-(naphthalen-2-yl)-1,4-dihydropyridine-3,5-dicarbonitrile]",inhibition at 100 µM,"[1]; 100 µM, 24 h",82.7%
same,IC50,"[1]; unit given, read-out: Cervical Cancer (HeLa) Cells IC50 Values ± SEM",53.47 ± 0.5 µM
same,phase of cell cycle arrest,MCF-7 cells,G0/G1 phase
